Data: US20030032774A1, “Novel opioid peptides for the treatment of pain” (priority 1994, published 2003)
Where two headings read alike, the source gives them in different places. Square brackets hold non-standard residues; d marks the D form. Peptide text beside a SMILES is read from it. * marks the point of attachment. Phe(4-NO2) = N[C@@H](Cc1ccc([N+](=O)[O-])cc1)C(=O)O; Phe(4-N3) = [N-]=[N+]=Nc1ccc(C[C@H](N)C(=O)O)cc1; 1Nal = N[C@@H](Cc1cccc2ccccc12)C(=O)O; 2Nal = N[C@@H](Cc1ccc2ccccc2c1)C(=O)O; NMeF = CN[C@@H](Cc1ccccc1)C(=O)O; Tic = O=C(O)[C@@H]1Cc2ccccc2CN1; dNle = CCCC[C@@H](N)C(=O)O; dAbu = CC[C@@H](N)C(=O)O; Ac5c = NC1(C(=O)O)CCCC1; Aib = CC(C)(N)C(=O)O; Bn = c1ccc(C*)cc1

Experiments:
[1] = system: PBQ induced writhing in mice; assay: PBQ (phenylquinone)-induced writhing assay; type: in vivo, mouse; conditions: mouse s.c., 20 min post administration
Experimental: The test was performed on CD #1 male mice weighing between 18 and 22 g. Mice were weighed, marked and then injected, by the intraperitoneal route, with 0.3 ml/20 g by weight of a solution of phenylquinone at 0.02%. The contortions which appeared during a 15 minute time period following the injection were counted. The phenylquinone was injected at time intervals of 5, 20 or 60 minutes after administration of the compound (or medium, or standard) by subcutaneous route. It was injected at time intervals of 60 minutes after the administration of the compound (or medium, or standard) by oral route;
The 0.02% phenylquinone solution was prepared as follows: 20 mg of phenylquinone was dissolved in 5 ml ethanol 90% (Sigma). The dissolved phenylquinone was slowly added to 95 ml of distilled water continuously shaken and preheated (not boiled). The phenylquinone solution was, at all times protected from light and a new solution was prepared every day for the test. Each group usually contained 10 mice. If an antagonist, such as naloxone, was used, it was administered 20 minutes before the compound (or the medium, or the standard) by the intraperitoneal route.
Writhing assays were performed on CD#1 male mice weighing between […]. Assays were carried out as described in Example 3 and results are summarized below in Table 2.

[2] = target: μ receptors (Cavia porcellus, UniProt P97266); assay: Guinea Pig Ileum (GPI) assay, longitudinal muscle preparation
Experimental: The activity of the peptide compounds on μ receptors was determined using the Guinea Pig Ileum (GPI) assay (longitudinal muscle preparation) according to the procedures described in Schiller et al., Biophys. Res. Commun. 85:1322 (1975).

[3] = target: T1, μ receptor (Rattus norvegicus, UniProt P33535); assay: Radioligand binding assay, μ opioid receptor ((3H)-DAMGO, brain membranes)
T1 construct: the brains (minus the cerebellum) were removed, placed in ice-cold saline solution, and then homogenized; from tissue; host or cells: rat brain (minus cerebellum) membranes
Experimental: PBQ (phenyl-ρ-benzoquinone) induced writhing in mice is an assessment of both central and peripheral analgesia (see Sigmund, et al., Proc. Soc. Exp. Biol. Med. 95:729 (1957)). Central analgesia is determined by the inhibition of a hot-plate response in mice (see, Wolfe, et al., J. Pharmacol. Exp. Ther. 80:300 (1944)). Assays measuring opioid receptor binding affinities for μ and δ receptors as well as the GPI assay were determined through experimental protocol set out in Schiller et al. (Biophys. Res. Commun. 85:1322 (1975)). The references by Sigmund, et al., Wolfe, et al., and Schiller, et al. are each hereby incorporated by reference.
Male Sprague-Dawley rats weighing between 350-450 g were sacrificed by inhalation of CO2. The rats were decapitated and the brains (minus the cerebellum) were removed, placed in ice-cold saline solution, and then homogenized in ice-cold 50 mM Tris buffer pH 7.4 (10 ml/brain). Membranes were centrifuged at 14000 rpm for 30 min. at 4° C. The pellets were re-suspended in approximately 6 ml/brain of ice-cold Tris buffer 50 mM pH 7.4 and stored at −78° C. until ready for use. Protein quantification of the brain homogenate was conducted according to protein assay kit purchased (Bio-Rad).
(^3H)-DAMGO and (^3H)-DAGLE were used as radioligands for the μ and δ receptors, respectively. Radioligand 50 μl, membranes 100 μl, and serially diluted test compound were incubated for 1 hr at 22° C. Nonspecific binding was determined using a 500 fold excess of unlabeled ligand in the presence of tracer and membranes. Free ligand was separated from bound by filtration through Whatman GF/B paper (presoaked in polyethylenimine 1% aqueous solution) and rinsing with ice-cold 50 mM Tris pH 7.4 using a Brandel cell harvester. The filters were dried and radioactivity was counted in a 24 well microplate in the presence of 500 μl scintillant per well. Radioactivity was measured using a Wallace 1450 Microbeta counter. Ki's for the various compounds were determined from the IC50 according to the Cheng and Prusoff equation.

Sequence of μ receptors (P97266 whole entry, looked up): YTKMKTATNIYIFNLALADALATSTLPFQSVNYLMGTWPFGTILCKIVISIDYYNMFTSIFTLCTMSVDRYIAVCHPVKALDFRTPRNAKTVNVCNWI
T1 sequence (P33535 whole entry): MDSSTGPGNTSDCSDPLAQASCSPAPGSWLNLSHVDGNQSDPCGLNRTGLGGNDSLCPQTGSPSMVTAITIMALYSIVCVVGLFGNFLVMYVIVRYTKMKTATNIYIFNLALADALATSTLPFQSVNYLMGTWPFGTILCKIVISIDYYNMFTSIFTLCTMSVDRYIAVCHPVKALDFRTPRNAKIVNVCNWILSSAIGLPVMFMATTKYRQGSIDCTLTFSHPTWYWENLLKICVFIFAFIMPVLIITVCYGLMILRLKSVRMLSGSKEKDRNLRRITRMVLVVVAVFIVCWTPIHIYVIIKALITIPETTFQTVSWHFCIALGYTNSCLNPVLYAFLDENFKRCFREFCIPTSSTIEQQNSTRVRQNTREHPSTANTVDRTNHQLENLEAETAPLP

NC(=O)[C@H](Cc1ccccc1)NC(=O)[C@H](Cc1ccccc1)NC(=O)[C@@H](Cc1ccccc1)NC(=O)[C@@H](N)Cc1ccc(O)cc1 [BCH753, H-Tyr-D-Phe-Phe-Phe-NH2] (H-Y[dF]FF-NH2)
ED50(PBQ) [1]: >20 mg/kg | IC50 ([2]; GPI(IC50), Table 1): 247 nM | Ki ([3]; Ki^μ, Table 1): 3.63 nM

CC(C)(NC(=O)[C@@H](N)Cc1ccc(O)cc1)C(=O)N[C@@H](Cc1ccccc1)C(=O)N[C@@H](Cc1ccccc1)C(N)=O [BCH754, H-Tyr-Aib-Phe-Phe-NH2] (H-Y[Aib]FF-NH2)
ED50(PBQ) [1]: >20 mg/kg

C[C@@H](NC(=O)[C@@H](N)Cc1ccc(O)cc1)C(=O)N[C@@H](Cc1ccc2ccccc2c1)C(=O)N[C@@H](Cc1cccc2ccccc12)C(N)=O [BCH758, H-Tyr-D-Ala-2′-Nal-1′-Nal-NH2] (H-Y[dA][2Nal][1Nal]-NH2)
ED50(PBQ) [1]: >20 mg/kg | Ki ([3]; Ki^μ, Table 1): 5.61 nM

C[C@@H](NC(=O)[C@@H](N)Cc1ccc(O)cc1)C(=O)N[C@H](Cc1ccccc1)C(=O)N[C@@H](Cc1ccccc1)C(N)=O [BCH1775, H-Tyr-D-Ala-D-Phe-Phe-NH2] (H-Y[dA][dF]F-NH2)
IC50 [2]: 925 nM | Ki [3]: 26 nM

C[C@@H](NC(=O)[C@@H](N)Cc1ccc(O)cc1)C(=O)N[C@@H](Cc1ccccc1)C(=O)N[C@@H](Cc1ccc(N=[N+]=[N-])cc1)C(N)=O [BCH1778, H-Tyr-D-Ala-Phe-Phe(4-N3)—NH2] (H-Y[dA]F[Phe(4-N3)]-NH2)
IC50 ([2]; GPI(IC50), Table 1): 50 nM | Ki ([3]; Ki^μ, Table 1): 1.49 nM

C[C@@H](NC(=O)[C@@H](N)Cc1ccc(O)cc1)C(=O)N[C@@H](Cc1ccc([N+](=O)[O-])cc1)C(=O)N[C@@H](Cc1ccccc1)C(N)=O [BCH1779, H-Tyr-D-Ala-Phe(4-NO2)-Phe-NH2] (H-Y[dA][Phe(4-NO2)]F-NH2)
IC50 ([2]; GPI(IC50), Table 1): 77 nM | Ki ([3]; Ki^μ, Table 1): 56.8 nM

C[C@@H](NC(=O)[C@@H](N)Cc1ccc(O)cc1)C(=O)N[C@@H](Cc1ccccc1)C(=O)N1Cc2ccccc2C[C@H]1C(N)=O [BCH1780, H-Tyr-D-Ala-Phe-Tic-NH2] (H-Y[dA]F[Tic]-NH2)
Ki ([3]; Ki^μ, Table 1): 12.7 nM

C[C@@H](NC(=O)[C@@H](N)Cc1ccc(O)cc1)C(=O)N[C@@H](Cc1ccccc1)C(=O)N(C)[C@@H](Cc1ccccc1)C(N)=O [BCH1781, H-Tyr-D-Ala-Phe-Phe(NMe)-NH2] (H-Y[dA]F[NMeF]-NH2)
IC50 ([2]; GPI(IC50), Table 1): 241 nM | Ki ([3]; Ki^μ, Table 1): 22.6 nM

C[C@@H](NC(=O)[C@@H](N)Cc1ccc(O)cc1)C(=O)N[C@@H](Cc1cccc2ccccc12)C(=O)N[C@@H](Cc1cccc2ccccc12)C(N)=O [BCH1783, H-Tyr-D-Ala-1′-Nal-1′-Nal-NH2] (H-Y[dA][1Nal][1Nal]-NH2)
ED50(PBQ) [1]: >20 mg/kg | Ki ([3]; Ki^μ, Table 1): 2.88 nM

C[C@@H](NC(=O)[C@@H](N)Cc1ccc(O)cc1)C(=O)N[C@@H](Cc1c[nH]c2ccccc12)C(=O)N[C@@H](Cc1c[nH]c2ccccc12)C(N)=O [BCH1786, H-Tyr-D-Ala-Trp-Trp-NH2] (H-Y[dA]WW-NH2)
ED50(PBQ) [1]: 10 mg/kg | Ki ([3]; Ki^μ, Table 1): 0.833 nM

CCCC[C@@H](NC(=O)[C@@H](N)Cc1ccc(O)cc1)C(=O)N[C@@H](Cc1ccccc1)C(=O)N[C@@H](Cc1c[nH]c2ccccc12)C(N)=O [BCH2208, H-Tyr-D-Nle-Phe-Trp-NH2] (H-Y[dNle]FW-NH2)
ED50(PBQ) [1]: >3 mg/kg

CCCC[C@@H](NC(=O)[C@@H](N)Cc1ccc(O)cc1)C(=O)N[C@@H](Cc1ccccc1)C(=O)N[C@@H](Cc1ccc2ccccc2c1)C(N)=O [BCH2211, H-Tyr-D-Nle-Phe-2′-Nal-NH2] (H-Y[dNle]F[2Nal]-NH2)
ED50(PBQ) [1]: >10 mg/kg

CCCC[C@@H](NC(=O)[C@@H](N)Cc1ccc(O)cc1)C(=O)N[C@@H](Cc1c[nH]c2ccccc12)C(=O)N[C@@H](Cc1ccccc1)C(N)=O [BCH2212, H-Tyr-D-Nle-Trp-Phe-NH2] (H-Y[dNle]WF-NH2)
ED50(PBQ) [1]: >10 mg/kg

C[C@@H](NC(=O)[C@@H](N)Cc1ccc(O)cc1)C(=O)N[C@@H](Cc1c[nH]c2ccccc12)C(=O)N[C@@H](Cc1ccc2ccccc2c1)C(N)=O [BCH2213, H-Tyr-D-Ala-Trp-2′-Nal-NH2] (H-Y[dA]W[2Nal]-NH2)
ED50(PBQ) [1]: >5 mg/kg

CCCC[C@@H](NC(=O)[C@@H](N)Cc1ccc(O)cc1)C(=O)N[C@@H](Cc1c[nH]c2ccccc12)C(=O)N[C@@H](Cc1ccc2ccccc2c1)C(N)=O [BCH2214, H-Tyr-D-Nle-Trp-2′-Nal-NH2] (H-Y[dNle]W[2Nal]-NH2)
ED50(PBQ) [1]: 15 mg/kg

CCCC[C@@H](NC(=O)[C@@H](N)Cc1ccc(O)cc1)C(=O)N[C@@H](Cc1c[nH]c2ccccc12)C(=O)N[C@@H](Cc1c[nH]c2ccccc12)C(N)=O [BCH2217, H-Tyr-D-Nle-Trp-Trp-NH2] (H-Y[dNle]WW-NH2)
ED50(PBQ) [1]: >5 mg/kg

CC(C)[C@@H](NC(=O)[C@@H](N)Cc1ccc(O)cc1)C(=O)N[C@@H](Cc1ccccc1)C(=O)N[C@@H](Cc1ccccc1)C(N)=O [BCH2464, H-Tyr-D-Val-Phe-Phe-NH2] (H-Y[dV]FF-NH2)
ED50(PBQ) [1]: >10 mg/kg

CC(C)C[C@@H](NC(=O)[C@@H](N)Cc1ccc(O)cc1)C(=O)N[C@@H](Cc1ccccc1)C(=O)N[C@@H](Cc1ccccc1)C(N)=O [BCH2465, H-Tyr-D-Leu-Phe-Phe-NH2] (H-Y[dL]FF-NH2)
ED50(PBQ) [1]: >10 mg/kg

CC[C@@H](C)[C@@H](NC(=O)[C@@H](N)Cc1ccc(O)cc1)C(=O)N[C@@H](Cc1ccccc1)C(=O)N[C@@H](Cc1ccccc1)C(N)=O [BCH2473, H-Tyr-D-Ile-Phe-Phe-NH2] (H-Y[dI]FF-NH2)
ED50(PBQ) [1]: >10 mg/kg

CC[C@@H](NC(=O)[C@@H](N)Cc1ccc(O)cc1)C(=O)N[C@@H](Cc1ccccc1)C(=O)N[C@@H](Cc1ccccc1)C(N)=O [BCH2577, H-Tyr-D-Abu-Phe-Phe-NH2] (H-Y[dAbu]FF-NH2)
ED50(PBQ) [1]: >10 mg/kg

NC(=O)[C@H](Cc1ccccc1)NC(=O)[C@H](Cc1ccccc1)NC(=O)C1(NC(=O)[C@@H](N)Cc2ccc(O)cc2)CCCC1 [BCH2579, H-Tyr-Cle-Phe-Phe-NH2] (H-Y[Ac5c]FF-NH2)
ED50(PBQ) [1]: >10 mg/kg

C[C@H](O)[C@@H](NC(=O)[C@@H](N)Cc1ccc(O)cc1)C(=O)N[C@@H](Cc1ccccc1)C(=O)N[C@@H](Cc1ccccc1)C(N)=O [BCH2811, H-Tyr-D-Thr-Phe-Phe-NH2] (H-Y[dT]FF-NH2)
ED50(PBQ) [1]: 12 mg/kg

C[C@@H](NC(=O)[C@@H](N)Cc1ccc(O)cc1)C(=O)N[C@@H](Cc1ccccc1)C(=O)N[C@@H](CSCc1ccccc1)C(N)=O [BCH3240, H-Tyr-D-Ala-Phe-Cys(Bzl)NH2] (H-Y[dA]FC(Bn)-NH2)
IC50 ([2]; GPI(IC50), Table 1): 9.16 nM | Ki ([3]; Ki^μ, Table 1): 5.3 nM

N=C(N)NCCC[C@@H](NC(=O)[C@@H](N)Cc1ccc(O)cc1)C(=O)N[C@@H](Cc1ccccc1)C(=O)N[C@@H](CSCc1ccccc1)C(N)=O [BCH3241, H-Tyr-D-Arg-Phe-Cys(Bzl)NH2] (H-Y[dR]FC(Bn)-NH2)
IC50 ([2]; GPI(IC50), Table 1): 33 nM | Ki ([3]; Ki^μ, Table 1): 6.95 nM

H-Tyr-Chl-Phe-Phe-NH2 [BCH2578]
ED50(PBQ) [1]: >10 mg/kg

H-Tyr-∇Ala-Phe-Phe-NH2 [BCH1787]
ED50(PBQ) [1]: 10 mg/kg

∇CH2Tyr-D-Ala-Phe-Phe-NH2 [BCH2202]
ED50(PBQ) [1]: >10 mg/kg
